Measured values from PMC12299904, “Purine–Hydrazone Scaffolds as Potential Dual EGFR/HER2 Inhibitors” (Pharmaceuticals, 2025).
Values joined by “and” are separate entries in the source; they are usually repeats but may differ in a detail not shown here. Identical values can stand only once. “Also recorded” adds a separate entry of the source. Like-named read-outs stand apart in the source and are kept apart here.

What was measured:
[1] = system: A549, SKOV-3, A2780, SKBR-3 cells; experiment: MTT assay, ranges stated over several cell lines; type: cell-based, human; details: for viability at 10 µM: Homo sapiens, 48 h, A549 and SKOV-3, read-out: cell viability range for A549 and SKOV-3
Method: (§1) The selected cell lines include A549, a lung cancer cell line that is characterized by its high expression of EGFR; SKOV-3, an ovarian cancer cell line, selected for its overexpression of both EGFR and HER2; and the breast cancer cell line (SKBR-3), characterized by HER2 overexpression.
(§2) Cells were passaged regularly at around 80% confluency using […] and maintained in 75 cm^2 flasks at 37 °C in a humidified atmosphere containing 5% CO2.
(§3) Approximately 10 × 10^3 cells were seeded per well of the 96-well plates using drug-free media and incubated for 24 h. […] After 48 h of drug exposure, the supernatant was aspirated, and the cells were washed with 100 μL of PBS. The MTT assay was performed by creating a stock solution of MTT at a concentration of 5 mg/mL in PBS. From this stock, a solution of MTT in the cell culture media was prepared to achieve a final concentration of 0.5 mg/mL. […] The MTT solution was thereafter removed, and the generated formazan crystals were dissolved by adding 100 μL of propanol/DMSO (50:50) per well. Absorbance was measured at 570 nm, and IC50 values for each compound were calculated by comparison against negative untreated controls.

[2] = In vitro cytotoxicity assay (MTT), normal cell line MRC-5; type: cell-based; details: MRC-5 normal embryonic lung cells, normal human embryonic lung cell line, mean ± SD
Method: as §2, §3

EGFR = molecular target: T1, EGFR (Homo sapiens, UniProt P00533); experiment: In vitro enzyme inhibition assay, EGFR Kinase Assay Kit (BPS Bioscience); type: biochemical; details: three independent experiments; read-out: Protein Kinase Inhibition IC50, EGFR
T1 construct: purchased BPS Bioscience 40321

A549 cells [3] = experiment: In vitro cytotoxicity assay (MTT), A549; details: for IC50: mean ± SD, three experiments; for viability at 10 µM: read-out: percentage of cell viability, A549; for Selectivity index (SI), A549: IC50 against MRC-5/IC50 against A549
Method: as §1, §2, §3

SKBR-3 cells = experiment: In vitro cytotoxicity assay (MTT), SKBR-3; type: cell-based, human; details: for IC50: MTT, 48 h, mean ± SD, three experiments; for Selectivity index (SI), SKBR-3: IC50 against MRC-5/IC50 against SKBR-3
Method: as §1, §2, §3

SKOV-3 cells = experiment: In vitro cytotoxicity assay (MTT), SKOV-3; type: cell-based, human; details: for IC50 / viability at 10 µM: MTT, 48 h; for IC50: mean ± SD, three experiments; for viability at 10 µM: SK-OV-3, read-out: percentage of cell viability, SKOV-3; for Selectivity index (SI), SKOV-3: IC50 against MRC-5/IC50 against SKOV-3
Method: as §1, §2, §3

HER2 = molecular target: T2, HER2 (Homo sapiens, UniProt P04626); experiment: In vitro enzyme inhibition assay, HER2 Kinase Assay Kit (BPS Bioscience); type: biochemical; details: three independent experiments; read-out: Protein Kinase Inhibition IC50, HER2
T2 construct: purchased BPS Bioscience 40721

A2780 cells = experiment: In vitro cytotoxicity assay (MTT), A2780; type: cell-based; details: Homo sapiens, 48 h, read-out: percentage of cell viability, A2780
A549 cells [4] = experiment: Apoptosis analysis (Annexin V-FITC/PI, flow cytometry); type: cell-based, human; details: A549, IC50 concentration, 24 h; for Apoptosis, Early / Apoptosis, Late / Necrosis: mean ± SD, % printed in text only
Method: Briefly, in flat-bottom 6-well plates, a total of 3 × 10^5 A549 cells were seeded per well and maintained at 37 °C for 24 h in a CO2 humidified atmosphere. Next, the cells were subjected to treatment with the equipotent concentration (1xIC50) of the tested compounds in the cell culture media. Following a 24 h incubation period, the supernatant was removed by suction, and attached cells were washed with PBS and collected using trypsin. Following the quenching of trypsin with culture media, the cells were resuspended as a single cell suspension in Annexin V binding buffer with 1% (v/v) propidium iodide and 1% (v/v) Annexin V-FITC. Negative (untreated) control samples were also included in the experiment. The samples were analyzed using flow cytometry, reading PI at Em. 617 nm, Ex. 535 nm, and Annexin-V-FITC at Em. 520 nm, Ex. 488 nm, while collecting 20,000 events/sample.

A549 cells [5] = experiment: Cell cycle assay (PI, flow cytometry); type: cell-based, human; details: A549, IC50 concentration; for Cell cycle comment / DNA Content (%) %G0–G1 / DNA Content (%) %G2/M / DNA Content (%) %S: 24 h; for DNA Content (%) %G0–G1 / DNA Content (%) %G2/M / DNA Content (%) %S: mean ± SD; for Cell Cycle Distribution Index (CDI): CDI = (G2/M + S)/(G0–G1)
Method: In a flat-bottom 6-well plate, 3 × 10^5 A549 cells were seeded per well and incubated at 37 °C for 24 h to allow attachment. […] Following a 24 h incubation period, the supernatant was removed by suction, and adherent cells were washed with PBS and collected with trypsin. Additionally, negative control (untreated) samples were also prepared. The cells were resuspended in 2 mL of 80% v/v of cold methanol for 45 min to achieve fixation. After centrifugation, the methanol was discarded, and the resulting cell pellets were washed and stained at room temperature for 30 min in the dark using propidium iodide PI (10% v/v of a 1 mg/mL stock solution in PBS) and RNAse (15% v/v of a 1 mg/mL stock solution in PBS). The cells were analyzed using flow cytometry, reading histograms in the red channel adjusted to PI (Em. 617 nm, Ex. 535 nm).

[6] = Homo sapiens, A549, 48 h, read-out: Cytotoxicity (IC50), A549, MTT, 48 h

T1 sequence (P00533 25-1210): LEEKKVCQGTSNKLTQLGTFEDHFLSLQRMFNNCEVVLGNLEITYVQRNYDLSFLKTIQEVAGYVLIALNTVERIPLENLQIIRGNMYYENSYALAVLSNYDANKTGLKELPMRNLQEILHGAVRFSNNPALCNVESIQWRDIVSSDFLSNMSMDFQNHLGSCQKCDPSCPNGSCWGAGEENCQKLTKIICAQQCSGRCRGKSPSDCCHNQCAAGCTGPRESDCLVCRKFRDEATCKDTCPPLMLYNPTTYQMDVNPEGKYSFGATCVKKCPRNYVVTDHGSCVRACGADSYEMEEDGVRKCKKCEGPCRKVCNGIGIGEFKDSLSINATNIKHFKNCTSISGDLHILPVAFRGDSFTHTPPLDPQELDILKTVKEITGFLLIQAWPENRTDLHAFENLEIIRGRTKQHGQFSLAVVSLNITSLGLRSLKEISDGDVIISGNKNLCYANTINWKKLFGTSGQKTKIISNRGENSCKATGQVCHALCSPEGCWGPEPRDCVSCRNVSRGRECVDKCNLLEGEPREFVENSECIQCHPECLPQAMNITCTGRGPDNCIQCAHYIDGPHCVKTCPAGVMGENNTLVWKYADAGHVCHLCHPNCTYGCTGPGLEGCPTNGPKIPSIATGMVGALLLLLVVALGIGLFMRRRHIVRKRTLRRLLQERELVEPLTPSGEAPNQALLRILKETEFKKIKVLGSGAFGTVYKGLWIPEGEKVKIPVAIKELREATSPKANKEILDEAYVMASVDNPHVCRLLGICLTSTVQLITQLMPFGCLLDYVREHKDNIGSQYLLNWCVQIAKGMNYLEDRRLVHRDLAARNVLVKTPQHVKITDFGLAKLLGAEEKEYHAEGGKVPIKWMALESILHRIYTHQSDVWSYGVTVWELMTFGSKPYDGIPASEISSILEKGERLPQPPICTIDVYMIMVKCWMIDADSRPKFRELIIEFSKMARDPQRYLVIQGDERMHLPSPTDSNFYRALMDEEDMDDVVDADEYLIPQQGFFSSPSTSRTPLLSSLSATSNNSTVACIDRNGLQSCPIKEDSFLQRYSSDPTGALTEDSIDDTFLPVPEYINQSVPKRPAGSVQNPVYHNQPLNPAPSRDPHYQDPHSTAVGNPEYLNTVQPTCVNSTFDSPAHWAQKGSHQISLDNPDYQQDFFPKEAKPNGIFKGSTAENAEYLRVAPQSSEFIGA
T2 sequence (P04626 23-1255): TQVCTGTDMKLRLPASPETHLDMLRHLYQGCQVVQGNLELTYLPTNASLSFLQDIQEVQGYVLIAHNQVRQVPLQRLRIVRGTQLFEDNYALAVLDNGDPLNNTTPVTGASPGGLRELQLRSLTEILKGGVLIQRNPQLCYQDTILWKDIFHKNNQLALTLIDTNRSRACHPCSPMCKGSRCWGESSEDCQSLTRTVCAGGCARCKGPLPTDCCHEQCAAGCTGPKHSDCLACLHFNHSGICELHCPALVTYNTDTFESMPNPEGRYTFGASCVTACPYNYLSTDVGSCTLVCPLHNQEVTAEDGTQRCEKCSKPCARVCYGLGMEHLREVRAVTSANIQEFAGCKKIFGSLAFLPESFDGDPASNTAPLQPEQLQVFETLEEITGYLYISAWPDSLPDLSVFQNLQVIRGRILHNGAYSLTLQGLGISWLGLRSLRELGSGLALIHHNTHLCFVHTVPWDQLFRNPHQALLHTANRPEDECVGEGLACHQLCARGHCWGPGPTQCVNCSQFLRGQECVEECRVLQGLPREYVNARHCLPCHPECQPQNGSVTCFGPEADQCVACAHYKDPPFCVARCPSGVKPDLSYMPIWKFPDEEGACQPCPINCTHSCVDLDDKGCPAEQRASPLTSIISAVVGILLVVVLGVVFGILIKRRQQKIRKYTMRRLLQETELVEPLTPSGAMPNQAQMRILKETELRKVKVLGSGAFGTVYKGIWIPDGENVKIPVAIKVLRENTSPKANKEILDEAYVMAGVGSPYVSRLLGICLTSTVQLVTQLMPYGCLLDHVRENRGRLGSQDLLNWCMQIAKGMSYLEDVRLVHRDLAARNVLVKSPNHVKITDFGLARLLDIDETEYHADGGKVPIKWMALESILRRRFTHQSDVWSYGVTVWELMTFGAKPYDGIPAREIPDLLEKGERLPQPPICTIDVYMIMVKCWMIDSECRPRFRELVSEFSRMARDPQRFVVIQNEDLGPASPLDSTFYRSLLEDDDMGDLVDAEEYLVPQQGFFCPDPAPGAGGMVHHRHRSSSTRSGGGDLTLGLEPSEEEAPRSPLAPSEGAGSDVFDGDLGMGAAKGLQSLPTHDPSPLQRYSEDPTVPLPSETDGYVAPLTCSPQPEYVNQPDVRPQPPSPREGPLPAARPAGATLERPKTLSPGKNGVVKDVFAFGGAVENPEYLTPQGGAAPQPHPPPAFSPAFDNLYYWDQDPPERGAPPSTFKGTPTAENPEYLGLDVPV

Row | Compound | IC50 (EGFR) | IC50 (HER2) | IC50 at 48 h [2] | IC50 (A549 cells [3]; [6]) | viability at 10 µM (A549 cells [3]; Homo sapiens, A549, 48 h) | Selectivity index (SI), A549 (A549 cells [3]) | IC50 (SKBR-3 cells; Homo sapiens, SK-BR-3, 48 h) | Selectivity index (SI), SKBR-3 (SKBR-3 cells) | IC50 (SKBR-3 cells) | IC50 (SKOV-3 cells; Homo sapiens, SK-OV-3, 48 h) | viability at 10 µM (SKOV-3 cells; Homo sapiens) | Selectivity index (SI), SKOV-3 (SKOV-3 cells) | IC50 (SKOV-3 cells) | viability at 10 µM (A2780 cells) | percentage of live cells (A549 cells [4]) | Apoptosis, Early (A549 cells [4]) | Apoptosis, Late (A549 cells [4]) | Necrosis (A549 cells [4]) | Cell cycle comment (A549 cells [5]) | DNA Content (%) %G0–G1 (A549 cells [5]) | further results
1 | NS(=O)(=O)c1cc(/C=N/NC(=O)c2ccc(Nc3ncnc4c3ncn4C3CCCC3)cc2)ccc1F [22b, (E)-5-((2-(4-((9-cyclopentyl-9H-purin-6-yl)amino)benzoyl)hydrazineylidene)methyl)-2-fluorobenzenesulfonamide] | 70 nM and 74 nM | 30 nM and 33 nM | 60590 ± 329 nM | 3950 ± 615 nM | 35% | 15.34 | 3800 ± 1400 nM | 15.94 | 3800 ± 1400 nM | 1540 ± 470 nM | 31% | 39.32 | 1540 ± 470 nM | 47% | 72.51% | 5.92% and 5.92 ± 0.74 % | 18.21% and 18.21 ± 0.12 % | 3.35 ± 0.49% | arrests the cell cycle at the G1 phase; also recorded: Cell cycle arrest@G1 | 77.0% and 77.04% and 77.04 ± 1.85 % | DNA Content (%) %G2/M (A549 cells [5]): 4.4% and 4.35% and 4.35 ± 0.29 %; DNA Content (%) %S (A549 cells [5]): 18.6% and 18.60 ± 2.00 %; Cell Cycle Distribution Index (CDI) (A549 cells [5]): 0.29
2 | COc1cc(C)c(/C=N/NC(=O)c2ccc(Nc3ncnc4c3ncn4C3CCCC3)cc2)cc1C [18b, (E)-4-((9-cyclopentyl-9H-purin-6-yl)amino)-N′-(4-methoxy-2,5-dimethylbenzylidene) benzohydrazide] | – | – | – | – | – | – | – | – | – | – | – | – | – | – | – | – | – | – | – | – | viability at 10 µM [1]: 81 to 100%
3 | O=C(N/N=C/c1cccc2ccccc12)c1ccc(Nc2ncnc3c2ncn3C2CCCC2)cc1 [23b, (E)-4-((9-cyclopentyl-9H-purin-6-yl)amino)-N′-(naphthalen-1-ylmethylene)benzohydrazide] | – | – | – | – | – | – | – | – | – | – | – | – | – | – | – | – | – | – | – | – | viability at 10 µM [1]: 81 to 100%

Second part, led by results:

Row | IC50 (EGFR) | IC50 (HER2) | Compound | IC50 at 48 h [2] | IC50 (A549 cells [3]; [6]) | viability at 10 µM (A549 cells [3]; Homo sapiens, A549, 48 h) | Selectivity index (SI), A549 (A549 cells [3]) | IC50 (SKBR-3 cells; Homo sapiens, SK-BR-3, 48 h) | Selectivity index (SI), SKBR-3 (SKBR-3 cells) | IC50 (SKBR-3 cells) | IC50 (SKOV-3 cells; Homo sapiens, SK-OV-3, 48 h) | viability at 10 µM (SKOV-3 cells; Homo sapiens) | Selectivity index (SI), SKOV-3 (SKOV-3 cells) | IC50 (SKOV-3 cells) | viability at 10 µM (A2780 cells) | percentage of live cells (A549 cells [4]) | Apoptosis, Early (A549 cells [4]) | Apoptosis, Late (A549 cells [4]) | Necrosis (A549 cells [4]) | Cell cycle comment (A549 cells [5]) | DNA Content (%) %G0–G1 (A549 cells [5]) | further results
4 | 60 nM and 62 nM | 45 ± 10 nM | O=C(N/N=C/c1cccc(C(F)(F)F)c1)c1ccc(Nc2ncnc3c2ncn3C2CCCC2)cc1 [16b, (E)-4-((9-cyclopentyl-9H-purin-6-yl)amino)-N′-(3-(trifluoromethyl)benzylidene) benzohydrazide] | 36650 ± 200 nM | 2600 ± 350 nM | 27% | 14.07 | 4300 ± 940 nM | 8.51 | 4310 ± 948 nM | 1970 ± 70 nM | 26% | 18.55 | 1980 ± 70 nM | 16% | – | – | – | – | – | – | Selectivity index (SI) range across cancer cell lines ([1]; IC50 MRC-5/IC50 cancer cell line, A549, SKOV-3, SKBR-3): 8.51–18.55; IC50 (A549 cells [3]; read-out: Cytotoxicity (IC50), A549, MTT, 48 h): 2600 ± 351 nM
5 | 80 nM and 81 nM | 59 ± 2 nM | O=C(N/N=C/c1cccc(-c2ccccc2)c1)c1ccc(Nc2ncnc3nc[nH]c23)cc1 [19a, (E)-4-((7H-purin-6-yl)amino)-N′-([1,1′-biphenyl]-3-ylmethylene)benzohydrazide] | 52360 ± 283 nM | 810 ± 139 nM | 39% | 64.6 | 1410 nM | 37.03 | 1410 ± 362 nM | 2190 ± 160 nM | 43% | 23.88 | 2190 ± 164 nM | 18% | 62.3% | 9.72% and 9.72 ± 1.06 % | 23.13% and 23.13 ± 0.73 % | 4.84 ± 0.34% | cell cycle arrest at the G1 phase | 86.9% and 86.88% and 86.88 ± 0.95 % | DNA Content (%) %G2/M (A549 cells [5]): 3.9% and 3.90 ± 1.22 %; DNA Content (%) %S (A549 cells [5]): 9.2% and 9.21% and 9.21 ± 1.43 %; Cell Cycle Distribution Index (CDI) (A549 cells [5]): 0.15
